Assay results: PMC6409085, “Three odorant-binding proteins are involved in the behavioral response of Sogatella furcifera to rice plant volatiles” (PeerJ, 2019)
Where “and” joins values, the source holds several entries; their conditions need not be identical. Identical values can stand only once.

Columns and labels:
[1] = system: S. furcifera adults; assay: Y-tube olfactometer behavioral trials; format: in vivo, Sogatella furcifera; settings: odorant 50 µL/L vs hexane; adults
Method in brief: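 Single S. furcifera adults (2 days post-emergence, starved 0.5 h) chose between odorant (100 µL of 50 µL/L on filter paper) and hexane control in a glass Y-tube, charcoal-filtered humidified air 300 mL/min per arm, 25 ± 1 °C, 50% RH. Choice scored if insect passed half an arm and stayed >1 min within 10 min; 45 insects per compound, chi-squared test.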

[2] = molecular target: SfurOBP3 (Sogatella furcifera, UniProt V5T818); assay: biochemical; format: binding; settings: for Fluorescence competitive binding assay, fluorescence intensity: OBP3, three replicate columns;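 for Fluorescence competitive binding assay, fluorescence intensity: competitor odorant at 2 to 20 µM with protein and 1-NPN both 2.0 µM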
Chain of SfurOBP3 (V5T818 entry or part of it): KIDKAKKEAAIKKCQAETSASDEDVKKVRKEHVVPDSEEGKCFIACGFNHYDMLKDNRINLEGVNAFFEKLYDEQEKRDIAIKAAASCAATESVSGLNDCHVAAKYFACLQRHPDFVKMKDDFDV
Method in brief: (§1)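 Fluorescence competitive binding used 2.0 µM SfurOBP and 2.0 µM 1-NPN reporter in 50 mM Tris-HCl, pH 7.4, with odorants at 2-20 µM. Fluorescence was read 2 min after adding the odorant (excitation 337 nm, emission 390-490 nm), in triplicate. Ki was calculated from IC50 as IC50/(1 + [1-NPN]/K1-NPN).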

[3] = molecular target: SfurOBP11 (Sogatella furcifera, UniProt V5T6E3); assay: biochemical; format: binding
Chain of SfurOBP11 (V5T6E3 entry or part of it): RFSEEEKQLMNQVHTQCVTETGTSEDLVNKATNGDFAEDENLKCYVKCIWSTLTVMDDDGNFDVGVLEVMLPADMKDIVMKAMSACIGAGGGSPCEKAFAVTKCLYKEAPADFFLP
Method in brief: as §1

[4] = molecular target: SfurOBP1 (Sogatella furcifera, UniProt V5T8N5); assay: biochemical; format: binding; settings: for Fluorescence competitive binding assay, fluorescence intensity: OBP1, three replicate columns
Chain of SfurOBP1 (V5T8N5 entry or part of it): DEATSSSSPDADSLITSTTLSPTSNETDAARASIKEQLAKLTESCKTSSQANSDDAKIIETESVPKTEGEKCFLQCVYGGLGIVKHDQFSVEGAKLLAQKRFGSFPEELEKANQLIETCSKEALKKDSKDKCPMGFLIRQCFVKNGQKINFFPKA
Method in brief: as §1

[5] = molecular target: SfurOBP2 (Sogatella furcifera, UniProt V5T759); assay: biochemical; format: binding
Chain of SfurOBP2 (V5T759 entry or part of it): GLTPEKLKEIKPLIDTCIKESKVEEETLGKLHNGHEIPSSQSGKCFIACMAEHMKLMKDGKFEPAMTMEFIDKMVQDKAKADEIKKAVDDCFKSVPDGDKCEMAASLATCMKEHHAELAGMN
Method in brief: as §1
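Throughout, for Fluorescence competitive binding assay, fluorescence intensity: competitor odorant at 2 to 20 µM with protein and 1-NPN both 2.0 µM.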

SMILES: CC1=CC[C@@H](C(C)(C)O)CC1 [α-terpineol]
- number of insects choosing hexane arm [1]: 14
- number of insects choosing volatilies arm [1]: 11
- number of insects failed (no choice) [1]: 15
- IC50 [2]: 13.6 µM
- Fluorescence competitive binding assay, fluorescence intensity ([2]; ligand concentration 2): 41927 and 42538 and 43146
- Fluorescence competitive binding assay, fluorescence intensity ([2]; ligand concentration 4): 40833 and 40011 and 41655
- Fluorescence competitive binding assay, fluorescence intensity ([2]; ligand concentration 6): 42160 and 41392 and 42949
- Fluorescence competitive binding assay, fluorescence intensity ([2]; ligand concentration 8): 37611 and 37369 and 39854
- Fluorescence competitive binding assay, fluorescence intensity ([2]; ligand concentration 10): 32220 and 32701 and 33181
- Fluorescence competitive binding assay, fluorescence intensity ([2]; ligand concentration 12): 30392 and 29567 and 30934
- Fluorescence competitive binding assay, fluorescence intensity ([2]; ligand concentration 14): 29784 and 30310 and 29247
- Fluorescence competitive binding assay, fluorescence intensity ([2]; ligand concentration 16): 24410 and 25726 and 27469
- Fluorescence competitive binding assay, fluorescence intensity ([2]; ligand concentration 18): 26293 and 25033 and 26983
- Fluorescence competitive binding assay, fluorescence intensity ([2]; ligand concentration 20): 28495 and 26490 and 25496
- binding affinity to SfurOBP3 (in words) ([2]; SfurOBP3): high binding affinities
- IC50 [3]: > 20 µM
- Fluorescence intensity, fluorescence competitive binding assay, OBP11 ([3]; ligand concentration 2, replicate 1): 29252
- Fluorescence intensity, fluorescence competitive binding assay, OBP11 ([3]; ligand concentration 2, replicate 2): 30685
- Fluorescence intensity, fluorescence competitive binding assay, OBP11 ([3]; ligand concentration 2, replicate 3): 32118
- Fluorescence intensity, fluorescence competitive binding assay, OBP11 ([3]; ligand concentration 4, replicate 1): 28869
- Fluorescence intensity, fluorescence competitive binding assay, OBP11 ([3]; ligand concentration 4, replicate 2): 31369
- Fluorescence intensity, fluorescence competitive binding assay, OBP11 ([3]; ligand concentration 4, replicate 3): 30942
- Fluorescence intensity, fluorescence competitive binding assay, OBP11 ([3]; ligand concentration 6, replicate 1): 28105
- Fluorescence intensity, fluorescence competitive binding assay, OBP11 ([3]; ligand concentration 6, replicate 2): 27021
- Fluorescence intensity, fluorescence competitive binding assay, OBP11 ([3]; ligand concentration 6, replicate 3): 30576
- Fluorescence intensity, fluorescence competitive binding assay, OBP11 ([3]; ligand concentration 8, replicate 1): 25898
- Fluorescence intensity, fluorescence competitive binding assay, OBP11 ([3]; ligand concentration 8, replicate 2): 26158
- Fluorescence intensity, fluorescence competitive binding assay, OBP11 ([3]; ligand concentration 8, replicate 3): 28412
- Fluorescence intensity, fluorescence competitive binding assay, OBP11 ([3]; ligand concentration 10, replicate 1): 27115
- Fluorescence intensity, fluorescence competitive binding assay, OBP11 ([3]; ligand concentration 10, replicate 2): 24221
- Fluorescence intensity, fluorescence competitive binding assay, OBP11 ([3]; ligand concentration 10, replicate 3): 26039
- Fluorescence intensity, fluorescence competitive binding assay, OBP11 ([3]; ligand concentration 12, replicate 1): 23153
- Fluorescence intensity, fluorescence competitive binding assay, OBP11 ([3]; ligand concentration 12, replicate 2): 22497
- Fluorescence intensity, fluorescence competitive binding assay, OBP11 ([3]; ligand concentration 12, replicate 3): 22406
- Fluorescence intensity, fluorescence competitive binding assay, OBP11 ([3]; ligand concentration 14, replicate 1): 22371
- Fluorescence intensity, fluorescence competitive binding assay, OBP11 ([3]; ligand concentration 14, replicate 2): 22254
- Fluorescence intensity, fluorescence competitive binding assay, OBP11 ([3]; ligand concentration 14, replicate 3): 22487
- Fluorescence intensity, fluorescence competitive binding assay, OBP11 ([3]; ligand concentration 16, replicate 1): 19119
- Fluorescence intensity, fluorescence competitive binding assay, OBP11 ([3]; ligand concentration 16, replicate 2): 17607
- Fluorescence intensity, fluorescence competitive binding assay, OBP11 ([3]; ligand concentration 16, replicate 3): 18419
- Fluorescence intensity, fluorescence competitive binding assay, OBP11 ([3]; ligand concentration 18, replicate 1): 25701
- Fluorescence intensity, fluorescence competitive binding assay, OBP11 ([3]; ligand concentration 18, replicate 2): 25030
- Fluorescence intensity, fluorescence competitive binding assay, OBP11 ([3]; ligand concentration 18, replicate 3): 24854
- Fluorescence intensity, fluorescence competitive binding assay, OBP11 ([3]; ligand concentration 20, replicate 1): 25268
- Fluorescence intensity, fluorescence competitive binding assay, OBP11 ([3]; ligand concentration 20, replicate 2): 25350
- Fluorescence intensity, fluorescence competitive binding assay, OBP11 ([3]; ligand concentration 20, replicate 3): 25312
- IC50 [4]: > 20 µM
- Fluorescence competitive binding assay, fluorescence intensity ([4]; ligand concentration 2 (μM)): 6377 and 6063 and 6691
- Fluorescence competitive binding assay, fluorescence intensity ([4]; ligand concentration 4 (μM)): 7679 and 7170 and 7304
- Fluorescence competitive binding assay, fluorescence intensity ([4]; ligand concentration 6 (μM)): 7149 and 7127 and 7171
- Fluorescence competitive binding assay, fluorescence intensity ([4]; ligand concentration 8 (μM)): 6956 and 7151 and 7930
- Fluorescence competitive binding assay, fluorescence intensity ([4]; ligand concentration 10 (μM)): 8380 and 7109 and 7555
- Fluorescence competitive binding assay, fluorescence intensity ([4]; ligand concentration 12 (μM)): 7012 and 7971 and 7255
- Fluorescence competitive binding assay, fluorescence intensity ([4]; ligand concentration 14 (μM)): 6581 and 7020 and 7628
- Fluorescence competitive binding assay, fluorescence intensity ([4]; ligand concentration 16 (μM)): 6623 and 7749 and 6480
- Fluorescence competitive binding assay, fluorescence intensity ([4]; ligand concentration 18 (μM)): 7107 and 7324 and 6847
- Fluorescence competitive binding assay, fluorescence intensity ([4]; ligand concentration 20 (μM)): 6572 and 7380 and 8412
- IC50 [5]: > 20 µM
- Fluorescence competitive binding assay, OBP2 (raw fluorescence reading) ([5]; ligand concentration 2 (unit not given), replicate column 1 of 3): 18212
- Fluorescence competitive binding assay, OBP2 (raw fluorescence reading) ([5]; ligand concentration 2 (unit not given), replicate column 2 of 3): 17771
- Fluorescence competitive binding assay, OBP2 (raw fluorescence reading) ([5]; ligand concentration 2 (unit not given), replicate column 3 of 3): 19569
- Fluorescence competitive binding assay, OBP2 (raw fluorescence reading) ([5]; ligand concentration 4 (unit not given), replicate column 1 of 3): 20390
- Fluorescence competitive binding assay, OBP2 (raw fluorescence reading) ([5]; ligand concentration 4 (unit not given), replicate column 2 of 3): 18924
- Fluorescence competitive binding assay, OBP2 (raw fluorescence reading) ([5]; ligand concentration 4 (unit not given), replicate column 3 of 3): 19735
- Fluorescence competitive binding assay, OBP2 (raw fluorescence reading) ([5]; ligand concentration 6 (unit not given), replicate column 1 of 3): 19485
- Fluorescence competitive binding assay, OBP2 (raw fluorescence reading) ([5]; ligand concentration 6 (unit not given), replicate column 2 of 3): 20387
- Fluorescence competitive binding assay, OBP2 (raw fluorescence reading) ([5]; ligand concentration 6 (unit not given), replicate column 3 of 3): 20572
- Fluorescence competitive binding assay, OBP2 (raw fluorescence reading) ([5]; ligand concentration 8 (unit not given), replicate column 1 of 3): 16903
- Fluorescence competitive binding assay, OBP2 (raw fluorescence reading) ([5]; ligand concentration 8 (unit not given), replicate column 2 of 3): 17555
- Fluorescence competitive binding assay, OBP2 (raw fluorescence reading) ([5]; ligand concentration 8 (unit not given), replicate column 3 of 3): 17959
- Fluorescence competitive binding assay, OBP2 (raw fluorescence reading) ([5]; ligand concentration 10 (unit not given), replicate column 1 of 3): 16415
- Fluorescence competitive binding assay, OBP2 (raw fluorescence reading) ([5]; ligand concentration 10 (unit not given), replicate column 2 of 3): 15491
- Fluorescence competitive binding assay, OBP2 (raw fluorescence reading) ([5]; ligand concentration 10 (unit not given), replicate column 3 of 3): 17367
- Fluorescence competitive binding assay, OBP2 (raw fluorescence reading) ([5]; ligand concentration 12 (unit not given), replicate column 1 of 3): 14309
- Fluorescence competitive binding assay, OBP2 (raw fluorescence reading) ([5]; ligand concentration 12 (unit not given), replicate column 2 of 3): 15826
- Fluorescence competitive binding assay, OBP2 (raw fluorescence reading) ([5]; ligand concentration 12 (unit not given), replicate column 3 of 3): 15705
- Fluorescence competitive binding assay, OBP2 (raw fluorescence reading) ([5]; ligand concentration 14 (unit not given), replicate column 1 of 3): 15282
- Fluorescence competitive binding assay, OBP2 (raw fluorescence reading) ([5]; ligand concentration 14 (unit not given), replicate column 2 of 3): 15181
- Fluorescence competitive binding assay, OBP2 (raw fluorescence reading) ([5]; ligand concentration 14 (unit not given), replicate column 3 of 3): 14363
- Fluorescence competitive binding assay, OBP2 (raw fluorescence reading) ([5]; ligand concentration 16 (unit not given), replicate column 1 of 3): 13073
- Fluorescence competitive binding assay, OBP2 (raw fluorescence reading) ([5]; ligand concentration 16 (unit not given), replicate column 2 of 3): 13018
- Fluorescence competitive binding assay, OBP2 (raw fluorescence reading) ([5]; ligand concentration 16 (unit not given), replicate column 3 of 3): 13539
- Fluorescence competitive binding assay, OBP2 (raw fluorescence reading) ([5]; ligand concentration 18 (unit not given), replicate column 1 of 3): 15519
- Fluorescence competitive binding assay, OBP2 (raw fluorescence reading) ([5]; ligand concentration 18 (unit not given), replicate column 2 of 3): 15960
- Fluorescence competitive binding assay, OBP2 (raw fluorescence reading) ([5]; ligand concentration 18 (unit not given), replicate column 3 of 3): 15297
- Fluorescence competitive binding assay, OBP2 (raw fluorescence reading) ([5]; ligand concentration 20 (unit not given), replicate column 1 of 3): 14913
- Fluorescence competitive binding assay, OBP2 (raw fluorescence reading) ([5]; ligand concentration 20 (unit not given), replicate column 2 of 3): 14580
- Fluorescence competitive binding assay, OBP2 (raw fluorescence reading) ([5]; ligand concentration 20 (unit not given), replicate column 3 of 3): 12894
